{
  "source": "the C3SDB collision cross section collection",
  "key": {"[1]": {"settings": "instrument: DT, single field, calibrated with Agilent tune mix (Agilent)"}, "[2]": {"settings": "instrument: DT, stepped-field"}, "[3]": {"settings": "instrument: TW, calibrated with phosphatidylcholines (ESI+) and phosphatidylethanolamines (ESI-)"}, "[4]": {"settings": "instrument: DT, stepped-field", "remark": "listed apart in the source"}, "[5]": {"settings": "instrument: DT, single field, calibrated with Agilent tune mix (Agilent)", "remark": "listed apart in the source"}, "[6]": {"settings": "instrument: DT, stepped-field", "remark": "listed apart in the source"}},
  "note": "“And” between values parts separate entries of the source, which are not always exact repeats. Equal entries are not always repeated.",
  "data": [
    {"smiles": "CCCCC/C=C\\C/C=C\\CCCCCCCC(=O)OC[C@H](COP(=O)([O-])OCC[N+](C)(C)C)OC(=O)CCCCCCCCC/C=C\\CCCCCC", "note": "[PC(36:3)]", "values": [
      {"measurement": "collision cross section (N2)", "setting": "[1]; [M+HCOO]-", "result": 289.4, "unit": "Å²"},
      {"measurement": "collision cross section (N2)", "setting": "[1]; [M+H]+", "result": 288.8, "unit": "Å²"},
      {"measurement": "collision cross section (N2)", "setting": "[1]; [M+Na]+", "result": 291.9, "unit": "Å²"},
      {"measurement": "collision cross section (N2)", "setting": "[2]; [M+H]+", "result": 295.8, "unit": "Å²"},
      {"measurement": "collision cross section (N2)", "setting": "[3]; [M+CH3COO]-", "result": 291.6, "unit": "Å²"},
      {"measurement": "collision cross section (N2)", "setting": "[3]; [M+H]+", "result": 285.5, "unit": "Å²"}
    ]},
    {"smiles": "N[C@@H](CCC(=O)O)C(=O)O", "note": "[L-Glutamate]", "values": [
      {"measurement": "collision cross section (N2)", "setting": "[4]; [M-H]-", "result": 125.65, "unit": "Å²"}
    ]},
    {"smiles": "CCCCCCCCCCCCCCCCCCCCCCCC(=O)O", "note": "[Lignoceric acid]", "values": [
      {"measurement": "collision cross section (N2)", "setting": "[4]; [M-H]-", "result": 201.11, "unit": "Å²"}
    ]},
    {"smiles": "NC(N)=NCCC[C@H](NC(=O)[C@H](Cc1ccccc1)NC(=O)[C@@H]1CCCN1C(=O)[C@H](CO)NC(=O)[C@H](Cc1ccccc1)NC(=O)CNC(=O)[C@@H]1CCCN1C(=O)[C@@H]1CCCN1C(=O)[C@@H](N)CCCN=C(N)N)C(=O)O", "note": "[Bradykinin]", "values": [
      {"measurement": "collision cross section (N2)", "setting": "[4]; [M+2H]2+", "result": 343.33, "unit": "Å²"},
      {"measurement": "collision cross section (N2)", "setting": "[4]; [M+3H]3+", "result": 447.61, "unit": "Å²"},
      {"measurement": "collision cross section (N2)", "setting": "[4]; [M+H]+", "result": 315.25, "unit": "Å²"}
    ]},
    {"smiles": "CCCCC/C=C\\C/C=C\\C/C=C\\CCCCCCC(=O)O[C@H](COC(=O)CCCCCCC/C=C\\CCCCCCCC)COP(=O)(O)OC[C@H](N)C(=O)O", "note": "[PS(38:4)]", "values": [
      {"measurement": "collision cross section (N2)", "setting": "[1]; [M+Na]+", "result": 290.6, "unit": "Å²"},
      {"measurement": "collision cross section (N2)", "setting": "[2]; [M-H]-", "result": 291.4, "unit": "Å²"},
      {"measurement": "collision cross section (N2)", "setting": "[3]; [M-H]-", "result": 280.9, "unit": "Å²"}
    ]},
    {"smiles": "CCCCC/C=C\\C/C=C\\CCCCCCCC(=O)O", "note": "[Linoleic acid]", "values": [
      {"measurement": "collision cross section (N2)", "setting": "[4]; [M-H]-", "result": 175.69, "unit": "Å²"},
      {"measurement": "collision cross section (N2)", "setting": "[5]; [M-H]-", "result": 173.24, "unit": "Å²"}
    ]},
    {"smiles": "CCCCC/C=C\\C/C=C\\CCCCCCCC(=O)O[C@H](COCCCCCCCCCCCCCCCCCC)COP(=O)([O-])OCC[N+](C)(C)C", "note": "[PC(o36:2)]", "values": [
      {"measurement": "collision cross section (N2)", "setting": "[2]; [M+H]+", "result": 303.1, "unit": "Å²"}
    ]},
    {"smiles": "CCCCCCCCCCCCCCCC(=O)OC[C@H](COP(=O)(O)O[C@H]1C(O)C(O)C(O)[C@@H](O)C1O)OC(=O)CCCCCCCCCCCCC", "note": "(stereo partly drawn) [PI(14:0/16:0)]", "values": [
      {"measurement": "collision cross section (N2)", "setting": "[2]; [M-H]-", "result": 280.1, "unit": "Å²"}
    ]},
    {"smiles": "CCCCC/C=C\\C/C=C\\CCCCCCCCCC(=O)O[C@H](COC(=O)CCCCCCCCCCC)COP(=O)([O-])OCC[N+](C)(C)C", "note": "[PC(16:1/16:1)]", "values": [
      {"measurement": "collision cross section (N2)", "setting": "[2]; [M+H]+", "result": 287.8, "unit": "Å²"},
      {"measurement": "collision cross section (N2)", "setting": "[6]; [M+H]+", "result": 280.16, "unit": "Å²"},
      {"measurement": "collision cross section (N2)", "setting": "[6]; [M+Na]+", "result": 286.9, "unit": "Å²"}
    ]},
    {"smiles": "CCCCC/C=C\\C/C=C\\CCCCCCCCCCCC(=O)O[C@H](COC(=O)CCCCCCC/C=C\\C/C=C\\CCCCC)COP(=O)(O)OC[C@H](N)C(=O)O", "note": "[PS(40:4)]", "values": [
      {"measurement": "collision cross section (N2)", "setting": "[1]; [M+H]+", "result": 293.2, "unit": "Å²"},
      {"measurement": "collision cross section (N2)", "setting": "[1]; [M+Na]+", "result": 297.6, "unit": "Å²"},
      {"measurement": "collision cross section (N2)", "setting": "[1]; [M-H]-", "result": 286.9, "unit": "Å²"},
      {"measurement": "collision cross section (N2)", "setting": "[2]; [M-H]-", "result": 297.6, "unit": "Å²"}
    ]},
    {"smiles": "CCCCC/C=C\\C/C=C\\CCCCCCCCCCCC(=O)O[C@H](COC(=O)CCCCCCCCCCCCC)COP(=O)([O-])OCC[N+](C)(C)C", "note": "[PC(18:1/18:1)]", "values": [
      {"measurement": "collision cross section (N2)", "setting": "[2]; [M+H]+", "result": "302.7 Å² and 302.8 Å²"},
      {"measurement": "collision cross section (N2)", "setting": "[6]; [M+H]+", "result": "296.42 Å² and 297.29 Å²"},
      {"measurement": "collision cross section (N2)", "setting": "[6]; [M+Na]+", "result": "298.03 Å² and 300.74 Å²"}
    ]},
    {"smiles": "CC(C)C[C@H](N)C(=O)O", "note": "[L-Leucine]", "values": [
      {"measurement": "collision cross section (N2)", "setting": "[4]; [M+H]+", "result": 135.56, "unit": "Å²"},
      {"measurement": "collision cross section (N2)", "setting": "[4]; [M-H]-", "result": 132.51, "unit": "Å²"},
      {"measurement": "collision cross section (N2)", "setting": "[6]; [M+H]+", "result": 135.16, "unit": "Å²"}
    ]},
    {"smiles": "N[C@@H](Cc1cnc[nH]1)C(=O)O", "note": "[L-Histidine]", "values": [
      {"measurement": "collision cross section (N2)", "setting": "[4]; [M+H]+", "result": 132.74, "unit": "Å²"},
      {"measurement": "collision cross section (N2)", "setting": "[4]; [M+Na]+", "result": 135.48, "unit": "Å²"},
      {"measurement": "collision cross section (N2)", "setting": "[4]; [M-H]-", "result": 130.01, "unit": "Å²"},
      {"measurement": "collision cross section (N2)", "setting": "[6]; [M+H]+", "result": 132.41, "unit": "Å²"},
      {"measurement": "collision cross section (N2)", "setting": "[5]; [M+H]+", "result": 131.9, "unit": "Å²"}
    ]},
    {"smiles": "CC/C=C\\C/C=C\\C/C=C\\CCCCCCCC(=O)O[C@H](COC(=O)CCCCCCCCC/C=C\\CCCCCCCC)COP(=O)(O)OC[C@@H](O)CO", "note": "[PG(38:4)]", "values": [
      {"measurement": "collision cross section (N2)", "setting": "[1]; [M+NH4]+", "result": 294.5, "unit": "Å²"},
      {"measurement": "collision cross section (N2)", "setting": "[1]; [M+Na]+", "result": 290.2, "unit": "Å²"},
      {"measurement": "collision cross section (N2)", "setting": "[1]; [M-H]-", "result": 278.7, "unit": "Å²"},
      {"measurement": "collision cross section (N2)", "setting": "[2]; [M-H]-", "result": 285.6, "unit": "Å²"},
      {"measurement": "collision cross section (N2)", "setting": "[3]; [M+Na]+", "result": 287.8, "unit": "Å²"},
      {"measurement": "collision cross section (N2)", "setting": "[3]; [M-H]-", "result": 277.7, "unit": "Å²"}
    ]},
    {"smiles": "N[C@@H](CSSC[C@H](N)C(=O)O)C(=O)O", "note": "[L-Cystine]", "values": [
      {"measurement": "collision cross section (N2)", "setting": "[4]; [M+H]+", "result": 150.08, "unit": "Å²"},
      {"measurement": "collision cross section (N2)", "setting": "[4]; [M+Na]+", "result": 151.81, "unit": "Å²"},
      {"measurement": "collision cross section (N2)", "setting": "[4]; [M-H]-", "result": 144.39, "unit": "Å²"},
      {"measurement": "collision cross section (N2)", "setting": "[5]; [M+H]+", "result": 149.4, "unit": "Å²"}
    ]},
    {"smiles": "CCCCCCCCCCCCCCCC(=O)O[C@H](CO)COP(=O)(O)O", "note": "[LPA(16:0)]", "values": [
      {"measurement": "collision cross section (N2)", "setting": "[2]; [M-H]-", "result": 194.5, "unit": "Å²"}
    ]},
    {"smiles": "O=C(O)[C@@H]1CCCN1", "note": "[L-Proline]", "values": [
      {"measurement": "collision cross section (N2)", "setting": "[4]; [M+H]+", "result": 126.22, "unit": "Å²"},
      {"measurement": "collision cross section (N2)", "setting": "[6]; [M+H]+", "result": 126.48, "unit": "Å²"},
      {"measurement": "collision cross section (N2)", "setting": "[5]; [M+H]+", "result": 125.1, "unit": "Å²"}
    ]},
    {"smiles": "Cc1ncc(COP(=O)(O)O)c(C=O)c1O", "note": "[Pyridoxal Phosphate]", "values": [
      {"measurement": "collision cross section (N2)", "setting": "[4]; [M+H]+", "result": 151.94, "unit": "Å²"},
      {"measurement": "collision cross section (N2)", "setting": "[4]; [M+Na]+", "result": 161.4, "unit": "Å²"},
      {"measurement": "collision cross section (N2)", "setting": "[4]; [M-H]-", "result": 150.8, "unit": "Å²"}
    ]}
  ]
}
